Data from patent publication US11407736B2 (priority 2019, dated 2022).
pIC50: −log10 of the molar value. Like-named read-outs stand apart in the source and are kept apart here.

Assays:
L929 cells = assay: L929 cell necroptosis assay (TNFa + zVAD, CellTiter-Glo); type: cell-based, murine; conditions: Mus musculus
Method: (§1) In this example, U937 and L929 cells were exposed to compounds of the present disclosure and a cell necroptosis assay was conducted to evaluate the compounds' activity against human RIP1 and murine RIP1.
U937 and L929 cells were obtained from the American Type Culture Collection (Manassa, Va., USA). Both cells were maintained in logarithmic growth phase in complete RPMI 1640 media (Sigma, ST Louis, Mo., USA) supplemented with 10% fetal bovine serum (Sigma, ST Louis, Mo., USA) at 37° C. with 5% CO2. For necroptosis assay, L929 cells were plated for 18 h in 100 μL/well medium at 10K cells/well in Costar 96-well black clear-bottom plates (Fisher Scientific, Hampton, N.H., USA); U937 cells were plated on the day of the assay in 50 4/well medium containing 60 uM zVAD-fink (Lonza, Basel, Switzerland) at 50K cells/well. Medium from L929 cells were removed from the 96-well plates and replaced with 50 μL/well new medium containing 40 uM zVAD-fink. Each compound of the present disclosure evaluated in this example was serially diluted in DMSO from 2.5 mM in 4-fold dilutions, and then diluted 1:125 in complete medium. 50 μL/well 2× of the compound was then added to the cells in the plates. […] The relative amount of necroptosis cells was determined by luminescent using a Wallac Victor2 Luminometer (PerkinElmer, Waltham, Mass., USA) and a CellTiter-Glo® Luminescent Cell Viability Reagent Assay (Promega, Madison, Wis., USA) added per manufacturer instructions after 18 hours of TNFa stimulation at 37° C. with 5% CO2.

U937 cells = assay: U937 cell necroptosis assay (TNFa + zVAD, CellTiter-Glo); type: cell-based, human; conditions: Homo sapiens, U-937, U937 cells, TNFa + zVAD; read-out: U937 Zvad TNF CTG Recovery, U937, TNFa + zVAD (IC50)
Method: as §1
U937 and L929 cells were obtained from the American Type Culture Collection (Manassa, Va., USA). Both cells were maintained in logarithmic growth phase in complete RPMI 1640 media (Sigma, ST Louis, Mo., USA) supplemented with 10% fetal bovine serum (Sigma, ST Louis, Mo., USA) at 37° C. with 5% CO2. For necroptosis assay, L929 cells were plated for 18 h in 100 μL/well medium at 10K cells/well in Costar 96-well black clear-bottom plates (Fisher Scientific, Hampton, N.H., USA); U937 cells were plated on the day of the assay in 50 4/well medium containing 60 uM zVAD-fink (Lonza, Basel, Switzerland) at 50K cells/well. Medium from L929 cells were removed from the 96-well plates and replaced with 50 μL/well new medium containing 40 uM zVAD-fink. Each compound of the present disclosure evaluated in this example was serially diluted in DMSO from 2.5 mM in 4-fold dilutions, and then diluted 1:125 in complete medium. 50 μL/well 2× of the compound was then added to the cells in the plates. The cells were pre-incubated with the compound for 1 hour at 37° C. with 5% CO2 and before addition of 10 μL/well 1 1×TNFa (Peprotech, Rocky Hill, N.J., USA) to give a final concentration of 2 ng/mL for TNFa. The relative amount of necroptosis cells was determined by luminescent using a Wallac Victor2 Luminometer (PerkinElmer, Waltham, Mass., USA) and a CellTiter-Glo® Luminescent Cell Viability Reagent Assay (Promega, Madison, Wis., USA) added per manufacturer instructions after 18 hours of TNFa stimulation at 37° C. with 5% CO2. This example establishes that embodiments of the compounds described herein have unexpectedly potent activity against human RIP1 and murine RIP1, which allows their assessment in in vivo mouse models of disease.

RIPK1 = RIPK1 (Homo sapiens (Human), UniProt Q13546); assay: RIPK1 ADP-Glo biochemical kinase assay
Chain of RIPK1 (Q13546 whole entry, species assumed): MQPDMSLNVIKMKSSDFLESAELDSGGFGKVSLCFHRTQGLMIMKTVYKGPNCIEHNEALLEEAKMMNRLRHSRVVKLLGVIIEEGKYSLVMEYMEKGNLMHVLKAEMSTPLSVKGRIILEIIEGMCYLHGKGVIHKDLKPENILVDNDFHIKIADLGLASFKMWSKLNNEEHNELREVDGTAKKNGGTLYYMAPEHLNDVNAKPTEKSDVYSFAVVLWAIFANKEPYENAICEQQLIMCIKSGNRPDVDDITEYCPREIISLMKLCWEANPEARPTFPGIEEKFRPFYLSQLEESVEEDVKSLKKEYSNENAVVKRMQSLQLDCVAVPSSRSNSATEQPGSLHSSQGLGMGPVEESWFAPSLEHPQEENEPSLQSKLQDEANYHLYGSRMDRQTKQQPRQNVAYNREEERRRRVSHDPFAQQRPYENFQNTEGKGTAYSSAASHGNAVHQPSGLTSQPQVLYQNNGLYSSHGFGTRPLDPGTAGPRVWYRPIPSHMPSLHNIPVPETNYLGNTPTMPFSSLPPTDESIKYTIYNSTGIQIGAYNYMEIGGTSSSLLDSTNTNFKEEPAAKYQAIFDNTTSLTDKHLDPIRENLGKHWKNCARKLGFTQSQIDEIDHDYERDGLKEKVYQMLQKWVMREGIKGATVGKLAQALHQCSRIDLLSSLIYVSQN
Method: The final reaction volume was 5.0ul.
Adding 5 μl of ADP-Glo™ terminated the reaction.

[1] = L929, L929 cells, TNFa + zVAD, read-out: L929-CTG-recovery, L929, TNFa + zVAD (IC50)
[2] = read-out: RIPK1 ADP-Glo Kinase (IC50)

CCOC(=O)CCc1ccc2c(c1)N(C)C(=O)[C@@H](NC(=O)c1n[nH]c(Cc3ccccc3)n1)CO2 [Compound I-1, Ethyl (S)-3-(3-(5-benzyl-1H-1,2,4-triazole-3-carboxamido)-5-methyl-4-oxo-2,3,4,5-tetrahydrobenzo[b][1,4]oxazepin-7-yl)propanoate]
pIC50 (L929 cells; [1]): 5.63 | pIC50 (U937 cells): 8.57 | pIC50 (RIPK1; [2]): 7.72

CN1C(=O)[C@@H](NC(=O)c2n[nH]c(Cc3ccccc3)n2)COc2ccc(CCC(=O)Nc3ccc4cn[nH]c4c3)cc21 [Compound I-3, (S)—N-(7-(3-((1H-indazol-6-yl)amino)-3-oxopropyl)-5-methyl-4-oxo-2,3,4,5-tetrahydrobenzo[b][1,4]oxazepin-3-yl)-5-benzyl-1H-1,2,4-triazole-3-carboxamide]
pIC50 (L929 cells; [1]): 6.37 | pIC50 (U937 cells): 8.31 | pIC50 (RIPK1; [2]): 7.40

CCOC(=O)CCc1ccc2c(c1)N(C)C(=O)[C@@H](NC(=O)c1ncn(Cc3ccccc3F)n1)CO2 [Compound I-5, Ethyl (S)-3-(3-(1-(2-fluorobenzyl)-1H-1,2,4-triazole-3-carboxamido)-5-methyl-4-oxo-2,3,4,5-tetrahydrobenzo[b][1,4]oxazepin-7-yl)propanoate]
pIC50 (L929 cells; [1]): 7.73 | pIC50 (U937 cells): 9.30 | pIC50 (RIPK1; [2]): 7.71

CN1C(=O)[C@@H](NC(=O)c2ncn(Cc3ccccc3F)n2)COc2ccc(CCC(=O)O)cc21 [Compound I-6, (S)-3-(3-(1-(2-fluorobenzyl)-1H-1,2,4-triazole-3-carboxamido)-5-methyl-4-oxo-2,3,4,5-tetrahydrobenzo[b][1,4]oxazepin-7-yl)propanoic acid]
pIC50 (L929 cells; [1]): 4.01 | pIC50 (U937 cells): 7.36 | pIC50 (RIPK1; [2]): 7.14

CN1C(=O)[C@@H](NC(=O)c2ncn(Cc3ccccc3F)n2)COc2ccc(CCC(=O)Nc3ccc4cn[nH]c4c3)cc21 [Compound I-7, (S)—N-(7-(3-((1H-indazol-6-yl)amino)-3-oxopropyl)-5-methyl-4-oxo-2,3,4,5-tetrahydrobenzo[b][1,4]oxazepin-3-yl)-1-(2-fluorobenzyl)-1H-1,2,4-triazole-3-carboxamide]
pIC50 (L929 cells; [1]): 5.71 | pIC50 (U937 cells): 9.05 | pIC50 (RIPK1; [2]): 7.68

CCOC(=O)CCc1ccc2c(c1)N(C)C(=O)[C@@H](NC(=O)c1ncn(Cc3c(Cl)cccc3Cl)n1)CO2 [Compound I-8, Ethyl (S)-3-(3-(1-(2,6-dichlorobenzyl)-1H-1,2,4-triazole-3-carboxamido)-5-methyl-4-oxo-2,3,4,5-tetrahydrobenzo[b][1,4]oxazepin-7-yl)propanoate]
pIC50 (L929 cells; [1]): 8.04 | pIC50 (U937 cells): 8.85 | pIC50 (RIPK1; [2]): 7.28

CN1C(=O)[C@@H](NC(=O)c2n[nH]c(Cc3ccccc3)n2)COc2ccc(CCC(=O)N3CCCC3)cc21 [Compound I-10, (S)-5-benzyl-N-(5-methyl-4-oxo-7-(3-oxo-3-(pyrrolidin-1-yl)propyl)-2,3,4,5-tetrahydrobenzo[b][1,4]oxazepin-3-yl)-1H-1,2,4-triazole-3-carboxamide]
pIC50 (L929 cells; [1]): 4.95 | pIC50 (U937 cells): 8.10 | pIC50 (RIPK1; [2]): 7.37

CN1C(=O)[C@@H](NC(=O)c2n[nH]c(Cc3ccccc3)n2)COc2ccc(CCC(=O)N3CCOCC3)cc21 [Compound I-11, (S)-5-benzyl-N-(5-methyl-7-(3-morpholino-3-oxopropyl)-4-oxo-2,3,4,5-tetrahydrobenzo[b][1,4]oxazepin-3-yl)-1H-1,2,4-triazole-3-carboxamide]
pIC50 (L929 cells; [1]): 4.85 | pIC50 (U937 cells): 8.09 | pIC50 (RIPK1; [2]): 7.24

CN1C(=O)[C@@H](NC(=O)c2n[nH]c(Cc3ccccc3)n2)COc2ccc(CCC(=O)Nc3ccc4cccnc4c3)cc21 [Compound I-12, (S)-5-benzyl-N-(5-methyl-4-oxo-7-(3-oxo-3-(quinolin-7-ylamino)propyl)-2,3,4,5-tetrahydrobenzo[b][1,4]oxazepin-3-yl)-1H-1,2,4-triazole-3-carboxamide]
pIC50 (L929 cells; L929, read-out: L929-CTG-recovery, L929, TNFa + zVAD (IC50), L929 cells, TNFa + zVAD): 4.38 | pIC50 (U937 cells): 8.28 | pIC50 (RIPK1; [2]): 7.28

CN1C(=O)[C@@H](NC(=O)c2n[nH]c(Cc3ccccc3)n2)COc2ccc(CCCO)cc21 [Compound I-14, (S)-5-benzyl-N-(7-(3-hydroxypropyl)-5-methyl-4-oxo-2,3,4,5-tetrahydrobenzo[b][1,4]oxazepin-3-yl)-1H-1,2,4-triazole-3-carboxamide]
pIC50 (L929 cells; [1]): 5.23 | pIC50 (U937 cells): 7.94 | pIC50 (RIPK1; [2]): 7.14

CN1C(=O)[C@@H](NC(=O)c2n[nH]c(Cc3ccccc3)n2)COc2ccc(CCCCO)cc21 [Compound I-15, (S)-5-benzyl-N-(7-(4-hydroxybutyl)-5-methyl-4-oxo-2,3,4,5-tetrahydrobenzo[b][1,4]oxazepin-3-yl)-1H-1,2,4-triazole-3-carboxamide]
pIC50 (L929 cells; [1]): 5.66 | pIC50 (U937 cells): 8.32 | pIC50 (RIPK1; [2]): 6.87

CN1C(=O)[C@@H](NC(=O)c2n[nH]c(Cc3ccccc3)n2)COc2ccc(CCCCOCc3ccccn3)cc21 [Compound I-16, (S)-5-benzyl-N-(5-methyl-4-oxo-7-(4-(pyridin-2-ylmethoxy)butyl)-2,3,4,5-tetrahydrobenzo[b][1,4]oxazepin-3-yl)-1H-1,2,4-triazole-3-carboxamide]
pIC50 (L929 cells; [1]): 5.25 | pIC50 (U937 cells): 7.29 | pIC50 (RIPK1; [2]): 5.79

CN1C(=O)[C@@H](NC(=O)c2n[nH]c(Cc3ccccc3)n2)COc2ccc(CCCCNc3ccccn3)cc21 [Compound I-17, (S)-5-benzyl-N-(5-methyl-4-oxo-7-(4-(pyridin-2-ylamino)butyl)-2,3,4,5-tetrahydrobenzo[b][1,4]oxazepin-3-yl)-1H-1,2,4-triazole-3-carboxamide]
pIC50 (L929 cells; [1]): 6.43 | pIC50 (U937 cells): 8.62 | pIC50 (RIPK1; [2]): 6.31

CN1C(=O)[C@@H](NC(=O)c2ncn(Cc3c(Cl)cccc3Cl)n2)COc2ccc(CCC(=O)N3CCCC3)cc21 [Compound I-18, (S)-1-(2,6-dichlorobenzyl)-N-(5-methyl-4-oxo-7-(3-oxo-3-(pyrrolidin-1-yl)propyl)-2,3,4,5-tetrahydrobenzo[b][1,4]oxazepin-3-yl)-1H-1,2,4-triazole-3-carboxamide]
pIC50 (L929 cells; [1]): 6.55 | pIC50 (U937 cells): 8.89 | pIC50 (RIPK1; [2]): 6.78

CN1C(=O)[C@@H](NC(=O)c2ncn(Cc3c(Cl)cccc3Cl)n2)COc2ccc(CCC(=O)NC3CC3)cc21 [Compound I-19, (S)—N-(7-(3-(cyclopropylamino)-3-oxopropyl)-5-methyl-4-oxo-2,3,4,5-tetrahydrobenzo[b][1,4]oxazepin-3-yl)-1-(2,6-dichlorobenzyl)-1H-1,2,4-triazole-3-carboxamide]
pIC50 (L929 cells; [1]): 5.89 | pIC50 (U937 cells): 8.57 | pIC50 (RIPK1; [2]): 6.84

CN1C(=O)[C@@H](NC(=O)c2n[nH]c(Cc3ccccc3)n2)COc2ccc(CN3CCN(c4ccncc4)CC3)cc21 [Compound I-20, (S)-5-benzyl-N-(5-methyl-4-oxo-7-((4-(pyridin-4-yl)piperazin-1-yl)methyl)-2,3,4,5-tetrahydrobenzo[b][1,4]oxazepin-3-yl)-1H-1,2,4-triazole-3-carboxamide]
pIC50 (L929 cells; [1]): 4.27 | pIC50 (U937 cells): 7.87 | pIC50 (RIPK1; [2]): 6.82

CN1C(=O)[C@@H](NC(=O)c2cc(Oc3ccccc3)ccn2)COc2cc(N3CCC4(CCOCC4)CC3)ccc21 [II-26, (S)—N-(5-methyl-4-oxo-8-(3-oxa-9-azaspiro[5.5]undecan-9-yl)-2,3,4,5-tetrahydrobenzo[b][1,4]oxazepin-3-yl)-4-phenoxypicolinamide]
pIC50 (U937 cells): 6.29 | pIC50 (RIPK1): 6.71
